Source: paper PMC4508061, “Selectivity Profiling and Biological Activity of Novel β-Carbolines as Potent and Selective DYRK1 Kinase Inhibitors” (PLoS ONE, 2015)

How the values were obtained:
[1] = target: TXK (Homo sapiens, UniProt P42681); experiment: ProQinase radiometric kinase panel; conditions: mean of 2 exp.
[2] = target: PKC-zeta (Homo sapiens, UniProt Q05513); experiment: ProQinase radiometric kinase panel; conditions: mean of 2 exp.
[3] = target: MAP4K5 (Homo sapiens, UniProt Q9Y4K4); experiment: ProQinase radiometric kinase panel; conditions: mean of 2 exp.
[4] = target: MAP3K9 (Homo sapiens, UniProt P80192); experiment: ProQinase radiometric kinase panel; conditions: mean of 2 exp.
[5] = target: VEGF-R2 (Homo sapiens, UniProt P35968); experiment: ProQinase radiometric kinase panel; conditions: mean of 2 exp.
[6] = Cell viability XTT assay; assay type: cell-based; conditions: rat, PC12 cells, read-out: Viability of treated cells relative to untreated control
[7] = target: JAK2 (Homo sapiens, UniProt O60674); experiment: ProQinase radiometric kinase panel; conditions: mean of 2 exp.
[8] = target: MARK2 (Homo sapiens, UniProt Q7KZI7); experiment: ProQinase radiometric kinase panel; conditions: mean of 2 exp.
[9] = target: PLK3 (Homo sapiens, UniProt Q9H4B4); experiment: ProQinase radiometric kinase panel; conditions: mean of 2 exp.
[10] = target: ERBB2 (Homo sapiens, UniProt P04626); experiment: ProQinase radiometric kinase panel; conditions: mean of 2 exp.
[11] = target: HIPK1 (Homo sapiens, UniProt Q86Z02); experiment: ProQinase radiometric kinase panel; conditions: mean of 2 exp.
[12] = target: GRK6 (Homo sapiens, UniProt P43250); experiment: ProQinase radiometric kinase panel; conditions: mean of 2 exp.
[13] = target: MERTK (Homo sapiens, UniProt Q12866); experiment: ProQinase radiometric kinase panel; conditions: mean of 2 exp.
[14] = target: PIM3 (Homo sapiens, UniProt Q86V86); experiment: ProQinase radiometric kinase panel; conditions: mean of 2 exp.
[15] = target: FGF-R1 (Homo sapiens, UniProt P11362); experiment: ProQinase radiometric kinase panel; conditions: mean of 2 exp.
[16] = target: ITK (Homo sapiens, UniProt Q08881); experiment: ProQinase radiometric kinase panel; conditions: mean of 2 exp.
[17] = target: B-RAF (Homo sapiens, UniProt P15056); experiment: ProQinase radiometric kinase panel; conditions: mean of 2 exp.
[18] = target: GRK2 (Homo sapiens, UniProt P25098); experiment: ProQinase radiometric kinase panel; conditions: mean of 2 exp.
[19] = target: PKC-alpha (Homo sapiens, UniProt P17252); experiment: ProQinase radiometric kinase panel; conditions: mean of 2 exp.
[20] = target: PRKX (Homo sapiens, UniProt P51817); experiment: ProQinase radiometric kinase panel; conditions: mean of 2 exp.
[21] = target: PRK2 (Homo sapiens, UniProt Q16513); experiment: ProQinase radiometric kinase panel; conditions: mean of 2 exp.
[22] = target: CAMK1D (Homo sapiens, UniProt Q8IU85); experiment: ProQinase radiometric kinase panel; conditions: mean of 2 exp.
[23] = target: PAK2 (Homo sapiens, UniProt Q13177); experiment: ProQinase radiometric kinase panel; conditions: mean of 2 exp.
[24] = target: WNK1 (Homo sapiens, UniProt Q9H4A3); experiment: ProQinase radiometric kinase panel; conditions: mean of 2 exp.
[25] = target: PKA (Homo sapiens, UniProt P17612); experiment: ProQinase radiometric kinase panel; conditions: mean of 2 exp.
[26] = target: GRK5 (Homo sapiens, UniProt P34947); experiment: ProQinase radiometric kinase panel; conditions: mean of 2 exp.
[27] = target: FGF-R2 (Homo sapiens, UniProt P21802); experiment: ProQinase radiometric kinase panel; conditions: mean of 2 exp.
[28] = target: RPS6KA2 (Homo sapiens, UniProt Q15349); experiment: ProQinase radiometric kinase panel; conditions: mean of 2 exp.
[29] = target: ROCK2 (Homo sapiens, UniProt O75116); experiment: ProQinase radiometric kinase panel; conditions: mean of 2 exp.
[30] = target: CAMK2A (Homo sapiens, UniProt Q9UQM7); experiment: ProQinase radiometric kinase panel; conditions: mean of 2 exp.
[31] = target: PAK6 (Homo sapiens, UniProt Q9NQU5); experiment: ProQinase radiometric kinase panel; conditions: mean of 2 exp.
[32] = target: GRK3 (Homo sapiens, UniProt P35626); experiment: ProQinase radiometric kinase panel; conditions: mean of 2 exp.
[33] = target: PHKG1 (Homo sapiens, UniProt Q16816); experiment: ProQinase radiometric kinase panel; conditions: mean of 2 exp.
[34] = target: SGK1 (Homo sapiens, UniProt O00141); experiment: ProQinase radiometric kinase panel; conditions: mean of 2 exp.
[35] = target: PRKD2 (Homo sapiens, UniProt Q9BZL6); experiment: ProQinase radiometric kinase panel; conditions: mean of 2 exp.
[36] = target: TRK-B (Homo sapiens, UniProt Q16620); experiment: ProQinase radiometric kinase panel; conditions: mean of 2 exp.
[37] = target: Aurora-B (Homo sapiens, UniProt Q96GD4); experiment: ProQinase radiometric kinase panel; conditions: mean of 2 exp.
[38] = target: FYN (Homo sapiens, UniProt P06241); experiment: ProQinase radiometric kinase panel; conditions: mean of 2 exp.
[39] = target: DCAMKL2 (Homo sapiens, UniProt Q8N568); experiment: ProQinase radiometric kinase panel; conditions: mean of 2 exp.

Chain of TRK-B (Q16620 32-822): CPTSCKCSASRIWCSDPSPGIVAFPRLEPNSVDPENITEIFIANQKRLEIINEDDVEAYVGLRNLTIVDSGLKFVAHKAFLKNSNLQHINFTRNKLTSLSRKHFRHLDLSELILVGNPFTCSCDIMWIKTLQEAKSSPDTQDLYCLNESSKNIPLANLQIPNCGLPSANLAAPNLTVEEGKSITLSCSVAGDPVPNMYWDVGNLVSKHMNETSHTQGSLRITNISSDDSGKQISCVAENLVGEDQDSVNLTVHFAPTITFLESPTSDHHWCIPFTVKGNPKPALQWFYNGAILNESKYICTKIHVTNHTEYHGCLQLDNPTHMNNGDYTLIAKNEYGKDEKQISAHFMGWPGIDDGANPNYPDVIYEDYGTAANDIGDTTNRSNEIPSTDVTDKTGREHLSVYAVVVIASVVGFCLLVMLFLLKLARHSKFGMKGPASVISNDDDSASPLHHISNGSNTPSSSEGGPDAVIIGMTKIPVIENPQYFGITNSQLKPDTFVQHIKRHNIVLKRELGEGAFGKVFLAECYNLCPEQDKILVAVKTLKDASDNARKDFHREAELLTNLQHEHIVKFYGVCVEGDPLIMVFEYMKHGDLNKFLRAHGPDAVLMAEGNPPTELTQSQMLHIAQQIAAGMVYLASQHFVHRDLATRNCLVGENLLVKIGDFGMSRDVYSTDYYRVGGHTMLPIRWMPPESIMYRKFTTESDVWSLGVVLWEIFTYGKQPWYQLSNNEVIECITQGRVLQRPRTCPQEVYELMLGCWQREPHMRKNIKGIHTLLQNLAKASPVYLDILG
Chain of FGF-R2 (P21802 22-821): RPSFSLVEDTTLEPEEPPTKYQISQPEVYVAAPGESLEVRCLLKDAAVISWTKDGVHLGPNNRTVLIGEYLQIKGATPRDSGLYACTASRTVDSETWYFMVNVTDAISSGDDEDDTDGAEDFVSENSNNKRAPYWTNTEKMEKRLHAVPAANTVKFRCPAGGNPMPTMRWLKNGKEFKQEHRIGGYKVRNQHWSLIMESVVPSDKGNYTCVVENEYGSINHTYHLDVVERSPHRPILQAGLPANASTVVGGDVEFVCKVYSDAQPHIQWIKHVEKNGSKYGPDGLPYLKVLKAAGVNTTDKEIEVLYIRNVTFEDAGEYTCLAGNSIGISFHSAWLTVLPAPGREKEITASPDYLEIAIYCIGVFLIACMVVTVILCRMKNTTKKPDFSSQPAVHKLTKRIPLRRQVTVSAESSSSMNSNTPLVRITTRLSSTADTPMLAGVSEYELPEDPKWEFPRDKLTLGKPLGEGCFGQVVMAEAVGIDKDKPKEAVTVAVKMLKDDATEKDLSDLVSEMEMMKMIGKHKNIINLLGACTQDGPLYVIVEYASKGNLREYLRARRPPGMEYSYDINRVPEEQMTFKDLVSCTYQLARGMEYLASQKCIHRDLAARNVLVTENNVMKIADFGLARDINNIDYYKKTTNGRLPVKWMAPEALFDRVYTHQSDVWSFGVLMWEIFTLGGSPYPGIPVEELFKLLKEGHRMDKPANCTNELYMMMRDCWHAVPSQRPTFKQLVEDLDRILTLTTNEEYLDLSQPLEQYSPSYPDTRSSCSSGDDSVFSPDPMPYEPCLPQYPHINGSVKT
Chain of MERTK (Q12866 21-999): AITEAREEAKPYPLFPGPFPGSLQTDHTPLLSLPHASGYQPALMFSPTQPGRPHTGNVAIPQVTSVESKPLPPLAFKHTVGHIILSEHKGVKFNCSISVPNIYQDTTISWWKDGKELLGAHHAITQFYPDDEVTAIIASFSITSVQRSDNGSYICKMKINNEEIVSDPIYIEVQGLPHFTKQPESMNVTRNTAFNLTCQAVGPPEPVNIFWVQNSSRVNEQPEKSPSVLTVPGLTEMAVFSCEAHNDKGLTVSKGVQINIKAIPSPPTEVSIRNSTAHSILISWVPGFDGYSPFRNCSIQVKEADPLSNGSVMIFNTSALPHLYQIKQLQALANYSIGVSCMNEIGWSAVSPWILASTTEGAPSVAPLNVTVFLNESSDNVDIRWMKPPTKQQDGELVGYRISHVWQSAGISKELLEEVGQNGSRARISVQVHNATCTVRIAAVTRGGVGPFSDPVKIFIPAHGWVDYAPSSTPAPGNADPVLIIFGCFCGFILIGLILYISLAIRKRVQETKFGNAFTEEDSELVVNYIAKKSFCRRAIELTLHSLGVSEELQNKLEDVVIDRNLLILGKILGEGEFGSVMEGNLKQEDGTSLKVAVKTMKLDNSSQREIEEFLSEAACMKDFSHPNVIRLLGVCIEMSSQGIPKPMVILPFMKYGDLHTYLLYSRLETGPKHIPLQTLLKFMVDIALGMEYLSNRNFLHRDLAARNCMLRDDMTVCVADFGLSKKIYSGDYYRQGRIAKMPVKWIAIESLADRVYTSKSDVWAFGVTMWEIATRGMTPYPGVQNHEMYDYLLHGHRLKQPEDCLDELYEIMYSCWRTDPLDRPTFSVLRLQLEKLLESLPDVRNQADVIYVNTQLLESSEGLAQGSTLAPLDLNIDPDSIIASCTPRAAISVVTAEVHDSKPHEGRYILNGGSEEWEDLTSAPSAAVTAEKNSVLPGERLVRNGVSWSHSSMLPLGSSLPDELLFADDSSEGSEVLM
Chain of TXK (P42681 whole entry): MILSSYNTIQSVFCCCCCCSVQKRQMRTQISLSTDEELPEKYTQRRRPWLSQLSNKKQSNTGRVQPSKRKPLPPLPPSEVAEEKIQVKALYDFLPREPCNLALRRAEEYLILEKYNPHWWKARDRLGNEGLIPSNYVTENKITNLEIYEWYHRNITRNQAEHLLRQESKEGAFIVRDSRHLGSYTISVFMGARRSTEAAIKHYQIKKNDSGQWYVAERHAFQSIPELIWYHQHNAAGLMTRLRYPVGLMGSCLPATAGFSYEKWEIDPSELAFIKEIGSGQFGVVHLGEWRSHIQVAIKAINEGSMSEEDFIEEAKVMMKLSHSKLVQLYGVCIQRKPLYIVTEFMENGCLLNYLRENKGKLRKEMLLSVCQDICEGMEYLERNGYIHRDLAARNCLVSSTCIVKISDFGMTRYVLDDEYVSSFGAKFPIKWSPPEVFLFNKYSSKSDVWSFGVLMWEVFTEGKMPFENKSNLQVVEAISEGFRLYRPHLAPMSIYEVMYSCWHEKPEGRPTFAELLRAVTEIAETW
Chain of MARK2 (Q7KZI7 whole entry): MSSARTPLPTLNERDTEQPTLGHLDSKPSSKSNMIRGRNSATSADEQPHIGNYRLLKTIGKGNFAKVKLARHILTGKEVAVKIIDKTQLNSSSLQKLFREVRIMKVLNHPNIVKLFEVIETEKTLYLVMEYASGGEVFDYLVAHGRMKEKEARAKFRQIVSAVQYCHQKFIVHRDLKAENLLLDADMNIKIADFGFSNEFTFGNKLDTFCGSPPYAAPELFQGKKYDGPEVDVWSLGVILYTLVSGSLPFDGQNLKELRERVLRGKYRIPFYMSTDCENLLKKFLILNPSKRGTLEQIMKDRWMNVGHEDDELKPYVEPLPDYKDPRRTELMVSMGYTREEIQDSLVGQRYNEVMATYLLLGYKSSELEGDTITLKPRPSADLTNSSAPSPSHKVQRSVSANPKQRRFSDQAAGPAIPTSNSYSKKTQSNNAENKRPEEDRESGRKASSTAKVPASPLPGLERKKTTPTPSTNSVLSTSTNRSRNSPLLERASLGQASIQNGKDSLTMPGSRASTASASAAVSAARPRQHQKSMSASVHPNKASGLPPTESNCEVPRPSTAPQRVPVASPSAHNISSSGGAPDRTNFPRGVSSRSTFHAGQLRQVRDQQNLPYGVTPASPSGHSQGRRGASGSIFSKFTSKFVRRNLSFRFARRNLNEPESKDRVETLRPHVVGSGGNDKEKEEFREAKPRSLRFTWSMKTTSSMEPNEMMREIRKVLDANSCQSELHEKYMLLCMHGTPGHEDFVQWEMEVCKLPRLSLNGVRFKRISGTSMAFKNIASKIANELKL
Chain of PRKX (P51817 whole entry): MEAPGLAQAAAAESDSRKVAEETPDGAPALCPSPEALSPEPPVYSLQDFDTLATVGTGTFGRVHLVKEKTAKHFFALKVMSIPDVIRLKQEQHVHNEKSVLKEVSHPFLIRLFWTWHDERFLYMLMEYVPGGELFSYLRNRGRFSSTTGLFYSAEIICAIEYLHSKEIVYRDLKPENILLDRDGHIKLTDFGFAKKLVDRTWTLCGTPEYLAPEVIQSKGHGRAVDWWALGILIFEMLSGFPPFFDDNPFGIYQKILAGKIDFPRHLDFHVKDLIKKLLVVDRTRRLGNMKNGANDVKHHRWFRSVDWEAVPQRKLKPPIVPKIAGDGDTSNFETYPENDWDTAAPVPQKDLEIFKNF

## COc1ccc2c3ccnc(Cl)c3n(CC#N)c2c1 [AnnH75]
[1]
  residual activity at 1 µM, Mean: 94 % of control
[2]
  residual activity at 1 µM, Mean: 97 % of control
[3]
  residual activity at 1 µM, Mean: 84 % of control
[4]
  residual activity at 1 µM, Mean: 100 % of control
[5]
  residual activity at 1 µM, Mean: 98 % of control
[6]; PC12, 1 μM
  viability at 3 days, 1 µM: 94%
[6]; PC12, 3 μM
  viability at 3 days, 3 µM: 100%
[6]; PC12, 10 μM
  viability at 3 days, 10 µM: 95%
[7]
  residual activity at 1 µM, Mean: 99 % of control
[8]
  residual activity at 1 µM, Mean: 98 % of control
[9]
  residual activity at 1 µM, Mean: 96 % of control
[10]
  residual activity at 1 µM, Mean: 102 % of control
[11]
  residual activity at 1 µM, Mean: 91 % of control
[12]
  residual activity at 1 µM, Mean: 98 % of control
[13]
  residual activity at 1 µM, Mean: 91 % of control
[14]
  residual activity at 1 µM, Mean: 44 % of control
[15]
  residual activity at 1 µM, Mean: 97 % of control
[16]
  residual activity at 1 µM, Mean: 95 % of control
[17]
  residual activity at 1 µM, Mean: 105 % of control
[18]
  residual activity at 1 µM, Mean: 92 % of control
[19]
  residual activity at 1 µM, Mean: 111 % of control
[20]
  residual activity at 1 µM, Mean: 80 % of control
[21]
  residual activity at 1 µM, Mean: 88 % of control
[22]
  residual activity at 1 µM, Mean: 102 % of control
[23]
  residual activity at 1 µM, Mean: 105 % of control
[24]
  residual activity at 1 µM, Mean: 98 % of control
[25]
  residual activity at 1 µM, Mean: 105 % of control
[26]
  residual activity at 1 µM, Mean: 95 % of control
[27]
  residual activity at 1 µM, Mean: 85 % of control
[28]
  residual activity at 1 µM, Mean: 97 % of control
[29]
  residual activity at 1 µM, Mean: 79 % of control
[30]
  residual activity at 1 µM, Mean: 79 % of control
[31]
  residual activity at 1 µM, Mean: 93 % of control
[32]
  residual activity at 1 µM, Mean: 92 % of control
[33]
  residual activity at 1 µM, Mean: 91 % of control
[34]
  residual activity at 1 µM, Mean: 91 % of control
[35]
  residual activity at 1 µM, Mean: 90 % of control
[36]
  residual activity at 1 µM, Mean: 72 % of control
[37]
  residual activity at 1 µM, Mean: 104 % of control
[38]
  residual activity at 1 µM, Mean: 92 % of control
[39]
  residual activity at 1 µM, Mean: 97 % of control
